In patent US20070213370A1, “5-HTP Combination Therapy” (H. Lundbeck A/S, priority 2005, published 2007):
Where two headings read alike, the source gives them in different places.

What was measured:
[1] = typical doses of 100-200 mg 5-HTP; cited from earlier work
NMRI/BOM mice = experiment: Mouse forced swim test; assay type: in vivo; details: for ED50: SRI alone, mouse forced swim test; for ED50, SRI + 5-HTP (25 mg/kg): SRI in combination with 5-HTP 25 mg/kg SC
From the text: Male NMRI/BOM mice (18-25 g; Bomholtgaard, Denmark) were used. The mice were housed in plastic cages (35×30×12 cm), 10 in each and habituated to the animal facilities for at least a week before test. […] The animals had free access to commercial food pellets and tap water before test.
A mouse that is forced to swim in a spatially constrained container will exert a characteristic immobile posture. Pretreatment with an antidepressant will counteract this effect. […] Briefly, a fully automated test system with 6 swim units (2000 ml glass jars filled with 1200 ml soiled water (23-25° C.) in which a mouse had been placed previously) was used. The assessment of immobility was performed by image analysis.
Thirty minutes after drug or vehicle treatment the mice were treated with 5-HTP and 20 min later the mice were placed into the glass jar and left in the water for a total of 6 min. The accumulated duration of immobility was measured during the last 3 min. A total of 9-18 mice were tested per dose.

[2] = Mouse plasma levels of 5-HTP; assay type: in vivo; details: mouse forced swim test with escitalopram versus human clinical efficacy
Experimental: For this indication, typical doses of 100-200 mg of 5-HTP result in plasma levels of 50-100 ng/ml (Gijsman, H. J., et al., J Clin Psychopharmacol. 2002 April, 22(2):183-9).

[3] = cited from earlier work
BALB/cByJ mice = experiment: Mouse marble burying behavior; assay type: in vivo
From the text: Male BALB/cByJ mice (Jackson labs, Bar Harbor, Me.) were housed 5/cage upon arrival, at which time they were 7-8 weeks of age. Animals acclimated to the housing facility under standard laboratory conditions for a period of at least one week before testing (lights on at 6:00 AM). […] Fifteen minutes after the second injection, animals were individually placed into novel cages in which a layer of Aspen Pine bedding on which two parallel rows of 10 marbles each (i.e. twenty total) were placed. After 30 minutes had elapsed, the mice were removed from their test cages and returned to their home cages. The number of fully visible marbles (less than ⅔ covered with bedding) were counted and subtracted from 20 to arrive at the number of marbles buried.

[4] = system: extra-cellular 5-HT in frontal cortex; experiment: Rat microdialysis, extracellular 5-HT in frontal cortex of freely moving rats; assay type: in vivo; details: escitalopram 0.5 mg/kg s.c. versus fluoxetine 10 mg/kg s.c.; 5-HTP 25 mg/kg s.c. 60 min later
Experimental: FIG. 1. […] Microdialysis in freely moving rats was performed as described in detail by Mark, […]. and Sanchez, C. […] Briefly, male Sprague-Dawley rats were prepared for microdialysis by surgically implanting intracerebral guide cannulas. A microdialysis probe was inserted through the guide cannula. Perfusion of the microdialysis probe with filtered Ringer solution (146 mM NaCl, 3 mM KCl, 1 mM MgCl2, 1.2 mM CaCl2) was done before the insertion of the probe and continued for the duration of the experiments at a constant flow of 1 μl/minute into the frontal cortex.

rat = details: cited from earlier work
mouse = details: co-administration with L; cited from earlier work
[5] = in combination with escitalopram at a dose corresponding to a clinically effective concentration

In the case of NC(Cc1c[nH]c2ccc(O)cc12)C(=O)O (centres unmarked) [5-HTP, 2-amino-3-(5-hydroxy-1H-indol-3-yl)-propanoic acid], the “plasma levels in humans” value [1] is given as 50 to 100 ng/mL, the “potentiation of the response to escitalopram” value (NMRI/BOM mice; 5-HTP 10, 15 and 50 mg/kg co-administered with escitalopram 0.5 mg/kg) is given as “significantly potentiates” and the “effect of 5-HTP alone” value (NMRI/BOM mice; 5-HTP 25 and 50 mg/kg without SRI) is given as “not by themselves effective”. The “5-HTP dose at which maximum potentiation effect was achieved” value (NMRI/BOM mice; [5]) was 50 mg/kg, the “minimal effective dose of 5-HTP” value (NMRI/BOM mice; [5]) was 10 mg/kg and the “factor by which potentiating plasma levels in mouse are lower than those required for clinical efficacy in humans” value [2] was “at least 3 times”. For the same molecule, the mouse plasma level ([3]; 5-HTP 25 mg/kg) was 17 ng/mL, the mouse plasma level ([3]; 5-HTP 50 mg/kg) was 41 ng/mL and the “marble burying, 5-HTP alone” value (BALB/cByJ mice; 5-HTP 2.5 mg/kg) was “no behavioral effect”.

In the case of CN(C)CCC[C@@]1(c2ccc(F)cc2)OCc2cc(C#N)ccc21 [Escitalopram, S-(+)-1-[3-(dimethylamino)propyl]-1-(p-fluorophenyl)-5-phthalancarbonitrileoxalate], the “5-HTP potentiation effect measured as increase of extra-cellular 5-HT in the frontal cortex” value [4] was “dramatically higher”, the ED50 (NMRI/BOM mice) was 12 mg/kg and the “ED50, SRI + 5-HTP (25 mg/kg)” value (NMRI/BOM mice) was 0.42 mg/kg. For the same molecule, the “anxiolytic response to co-treatment with L, 5-HTP” value (rat) was “markedly enhanced”, the “marble burying, escitalopram without 5-HTP” value (BALB/cByJ mice; 0.25 mg/kg IP) was “inactive” and the “marble burying, escitalopram with 5-HTP” value (BALB/cByJ mice; escitalopram 0.0625-0.25 mg/kg plus 5-HTP 2.5 mg/kg) was “significant reduction in marble burying”.

For CNCCC(Oc1ccc(C(F)(F)F)cc1)c1ccccc1 (centres unmarked) [Fluoxetine], the ED50 (NMRI/BOM mice) was > 8.9 mg/kg and the “ED50, SRI + 5-HTP (25 mg/kg)” value (NMRI/BOM mice) was 5.4 mg/kg.

In the case of Fc1ccc([C@@H]2CCNC[C@H]2COc2ccc3c(c2)OCO3)cc1 [Paroxetine, (3S,4R)-3-((1,3-benzodioxol-5-yloxy)methyl)-4-(4-fluorophenyl)-piperidine], the ED50 (NMRI/BOM mice) is listed as 6.5 mg/kg, the “ED50, SRI + 5-HTP (25 mg/kg)” value (NMRI/BOM mice) is listed as 0.64 mg/kg and the “antiaggressive effect with a subeffective dose of L, 5-HTP” value (mouse) is listed as “greatly potentiated”.

For CN(C)CCC[C@]1(c2ccc(F)cc2)OCc2cc(C#N)ccc21 [R-citalopram], the “anxiolytic response to co-treatment with L, 5-HTP” value (rat) is listed as “significant increase of ultrasonic vocalization”.

With COc1ccc(C(CN(C)C)C2(O)CCCCC2)cc1 (centres unmarked) [Venlafaxine] the ED50 (NMRI/BOM mice) was > 10 mg/kg and the “ED50, SRI + 5-HTP (25 mg/kg)” value (NMRI/BOM mice) was 3.9 mg/kg.
